From patent publication US7625917B2, “Thiolesters and uses thereof” (priority 1998, dated 2009)
pIC50: −log10 of the molar value. Like-named read-outs stand apart in the source and are kept apart here.

Experiments:
[1] = molecular target: T1, recombinant HIV-1 NCp7 protein (Human immunodeficiency virus type 1 group M subtype B, UniProt P03347); experiment: Trp37 zinc finger fluorescence (zinc ejection) assay; format: biochemical; details: for zinc finger reactivity in the presence of glutathione (in words): 2 molar excess of glutathione; for Zinc Finger Reactivity RFU/min: average decrease in relative fluorescence units over 30 min; for inhibition at 2000 µM (stock): Table 8, GSH +: 2 mM compound, 2 h at 37° C. with 4 mM reduced glutathione, 30 min incubation, read-out: Zinc Finger Reactivity % Decrease
T1 construct: recombinant HIV-1 NCp7 protein

[2] = molecular target: T2, recombinant HIV-1 integrase (Human immunodeficiency virus type 1 group M subtype B, UniProt P03366); experiment: HIV-1 integrase 3′ processing and strand transfer assay; format: biochemical
T2 construct: recombinant HIV-1 integrase; S. Hughes, ABL Basic Research NCI-FCRDC, Frederick Md
Description: The 5-bromovaleroyl thioester, compound 44, and two 5-pyridiniovaleroyl thioesters, compounds 45and 47, were analyzed in mechanistic and target-based assays. […] Assays for activity against HIV-1 reverse transcriptase rAdT (template/primer) and rCdG (template/primer) using recombinant HIV-1 reverse transcriptase (S. Hughes, ABL Basic Research NCI-FCRDC, Frederick Md.) were performed as described by Rice (1997) supra. Substrate cleavage of recombinant HIV-1 protease in the presence of test compounds using an HPLC-based methodology with the artificial substrate Ala-Ser-Glu-Asn-Try-Pro-Ile-Val-amide (Multiple Peptide Systems, San Diego Calif.) was performed as described by Rice (1997) supra. The ability of recombinant HIV-1 integrase (S. Hughes, ABL Basic Research NCI-FCRDC, Frederick Md.) to carry out 3′ processing and strand transfer activities in the presence of test compounds was performed as described by Buckheit (1994) AIDS Res. Hum. Retroviruses 10:1497-1506, and Turpin (1998) Antimicrob. Agents Chemother. 42: 487-494.

virus attachment = experiment: cell-based p24 attachment assay; parameters: species or system HIV-1
Description: The cell-based p24 attachment assay was performed as described in Rice (1995) Science 270:1194-1197. Viral inactivation assays were carried out as described in Rice (1995) Science 270:1194-1197, and Turpin (1997) supra, with minor modifications. Briefly, MAGI-CCR-5 cells were plated (4×10^4 cells per well) in flat bottomed 2-cm well plates for 24 h, after which the culture media was removed and compound-treated virus was added. The virus used was obtained by transient transfection of pNL4-3 into HeLa cells yielding the replication competent NL4-3 virus. Virus containing supernatants were treated for 2 h at 37° C. after which residual compound was removed by centrifugation (18,000×g, 1 h, 4° C.). Virus pellets were resuspended and placed on the MAGI-CCR-5 monolayers and cultured for 48 h. Monolayers were fixed and stained with X-gal solution and blue cells counted.

[3] = system: fusion of the HL2/3 and MAGI-CCR-5 cells; experiment: viral fusion assay (HL2/3 and MAGI-CCR-5 co-culture); format: cell-based
Description: Determination of the effect of the test compounds on viral fusion were carried out as follows. Briefly, HL2/3 cells stably expressing HIV-1 Tat and cell surface gp120 and MAGI-CCR-5 cells stably expressing CD4 and CCR5 on their cell surface, containing a β-galactosidase reporter gene under the control of the HIV-1 LTR were pretreated with test compound for 1 h at 37° C. After incubation, the cells were mixed in […] (2×10^5 MAGI-CCR-5 to 8×10^5 HL2/3 cells) and co-cultured for 18 h at 37° C.; cultures were fixed and stained with X-gal solution for β-galactosidase activity. Blue cells represented the Tat transactivation of the HV-1 LTR upon fusion of the HL2/3 and MAGI-CCR-5 cells via the CD4/CCR5 co-receptor gp120 interaction.

Sp1 = molecular target: T3, Sp1 (Homo sapiens, UniProt P08047); experiment: Sp1 super gel shift EMSA (K562 cell nuclear extracts); format: biochemical; details: specificity for CCHC vs CCHH zinc finger
T3 construct: treatment of K562 cell nuclear extracts with the compounds; host or cells: K562 cell nuclear extracts
T3 sequence (P08047 whole entry): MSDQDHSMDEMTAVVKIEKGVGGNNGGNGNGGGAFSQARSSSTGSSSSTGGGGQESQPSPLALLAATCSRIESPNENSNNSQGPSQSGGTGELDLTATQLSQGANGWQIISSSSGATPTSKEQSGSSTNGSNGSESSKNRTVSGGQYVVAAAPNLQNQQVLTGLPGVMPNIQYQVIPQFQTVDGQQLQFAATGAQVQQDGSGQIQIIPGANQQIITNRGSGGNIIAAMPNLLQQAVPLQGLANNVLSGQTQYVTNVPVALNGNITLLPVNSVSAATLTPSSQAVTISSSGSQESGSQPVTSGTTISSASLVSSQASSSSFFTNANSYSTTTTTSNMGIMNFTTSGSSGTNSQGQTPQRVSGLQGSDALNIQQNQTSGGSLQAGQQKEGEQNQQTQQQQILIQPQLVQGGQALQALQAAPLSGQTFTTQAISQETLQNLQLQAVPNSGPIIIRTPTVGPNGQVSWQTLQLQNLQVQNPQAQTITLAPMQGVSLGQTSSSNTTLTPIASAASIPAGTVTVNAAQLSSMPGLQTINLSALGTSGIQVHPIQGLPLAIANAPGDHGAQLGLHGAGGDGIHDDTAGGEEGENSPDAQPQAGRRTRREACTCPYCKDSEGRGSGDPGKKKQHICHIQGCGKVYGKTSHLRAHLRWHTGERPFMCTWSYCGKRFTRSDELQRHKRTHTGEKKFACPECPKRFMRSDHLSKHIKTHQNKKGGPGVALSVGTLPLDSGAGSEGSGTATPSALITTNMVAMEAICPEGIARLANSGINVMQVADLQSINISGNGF
Description: To determine if compound 44, 45 or 47 binding activity was specific for CCHC zinc fingers, a super gel shift EMSA after treatment of K562 cell nuclear extracts with the compounds was performed. This was followed by super shifting with Sp1-specific antibody. Sp1 was chosen because it is a cellular transcription factor that contains three copies of a classical type CCHH zinc finger motif that are required for Sp1 binding to its DNA target. […] Super gel shifting to determine the specificity of zinc finger reactive compounds was carried out using an Sp1 consensus oligomer (Stratagene, La Jolla, Calif.), K562 cell nuclear extracts, and antibodies for Sp1 (Sp1[PEP2]-G) (extracts and Sp1 Abs from Santa Cruz Biotechnology, Inc., Santa Cruz, Calif.). The binding reactions of oligonucleotides with K562 nuclear extract, as well as electrophoretic conditions were carried out as described in the Gelshift Buffer Kit, Stratagene , La Jolla, Calif.

[4] = Human immunodeficiency virus 1, Table 7, high dose test 100 μM, read-out: Attachment I50

SMILES | zinc finger reactivity (in words) [1] | zinc finger reactivity in the presence of glutathione (in words) [1] | Zinc Finger Reactivity RFU/min ([1]; Table 5) [RFU/min] | Zinc Finger Reactivity RFU/min ([1]; Table 6) [RFU/min] | inhibition at 2000 µM (stock) [1] [%] | inhibition of HIV-1 integrase (in words) [2] | inhibition of virus attachment (in words) (virus attachment) | pIC50 (virus attachment; [4]) | inhibition of fusion to host cells (in words) [3] | effect on super shifting of Sp1 bound to its DNA target (Sp1) | pIC50 [2] | pIC50 (virus attachment; Human immunodeficiency virus 1, read-out: Attachment I50) | zinc finger reactivity / zinc ejection rate [1] [RFU/min] | Zinc Finger Reactivity RFU/min ([1]; Table 10) [RFU/min]
CC(=O)NS(=O)(=O)c1ccc(NC(=O)c2ccccc2SC(=O)CCCCBr)cc1 [Compound 44, N-[2-(5-bromovaleroylthio)benzoyl]sulfacetamide] | promoted metal ion (zinc) ejection | maintained the capacity to attack the cysteine thiols | 1.8 | 1.8 | 28 | did not inhibit | did not inhibit | < 4.00 | did not inhibit | failed to alter the pattern of super shifting of Sp1 |  |  |  | 
O=C(CCCC[n+]1ccccc1)Sc1ccccc1C(=O)Nc1ccc(S(=O)(=O)c2ccc([N+](=O)[O-])cc2)cc1 [Compound 47] | promoted metal ion (zinc) ejection | maintained the capacity to attack the cysteine thiols |  | 4.1 | 21.1 | did not inhibit | did not inhibit |  | did not inhibit | failed to alter the pattern of super shifting of Sp1 | < 4.00 | < 4.00 |  | 
O=C(O)CCCC[n+]1ccccc1.[Br-] [Compound 53, 5-pyridiniovaleric acid] |  |  |  | 4 |  |  |  |  |  |  |  |  | 4 | 
CC(=O)NS(=O)(=O)c1ccc(NC(=O)c2ccccc2SC(=O)CCCC[n+]2ccccc2)cc1 [Compound 45, N-[2-(5-pyridinio-valeroylthio)benzoyl]sulfacetamide bromide] | promoted metal ion (zinc) ejection | maintained the capacity to attack the cysteine thiols | 3.6 | 3.6 | 36.9 | did not inhibit | did not inhibit | < 4.00 | did not inhibit | failed to alter the pattern of super shifting of Sp1 |  |  | 3.6 | 3.6
